Test results: patent publication US9284333B2, “Fused pyrroledicarboxamides and their use as pharmaceuticals” (SANOFI, priority 2012, dated 2016)

Each compound was assayed against Human TASK-1 channels (Homo sapiens (Human), UniProt O14649) (assay: Determination of the activity on the TASK-1 channel in Xenopus oocytes (two-microelectrode voltage clamp)). Conditions: compound concentration 5 μM.
Format: cell-based
How it was run: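 Current during 500 ms pulses to 40 mV from a −90 mV hold was recorded in oocytes expressing human TASK-1 for two days after cRNA injection. Compounds were added cumulatively to the ND96 bath (pH 7.4, room temperature). IC50 came from dose-response fitting of inhibition relative to pre-compound current.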

Human TASK-1 channels, sequence (O14649 whole entry): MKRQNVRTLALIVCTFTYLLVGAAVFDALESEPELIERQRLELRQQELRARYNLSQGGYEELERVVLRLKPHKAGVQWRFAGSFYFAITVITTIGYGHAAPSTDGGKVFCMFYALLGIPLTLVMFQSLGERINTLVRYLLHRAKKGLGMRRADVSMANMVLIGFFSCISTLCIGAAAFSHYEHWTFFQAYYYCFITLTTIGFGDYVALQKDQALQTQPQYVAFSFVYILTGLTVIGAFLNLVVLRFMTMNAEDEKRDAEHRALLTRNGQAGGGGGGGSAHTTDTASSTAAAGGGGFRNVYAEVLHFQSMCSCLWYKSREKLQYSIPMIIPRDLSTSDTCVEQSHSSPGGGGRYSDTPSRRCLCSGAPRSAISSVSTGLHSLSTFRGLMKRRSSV

Row | inhibition at 5 µM [%] | Compound
1 | 80 | CC[C@@H](NC(=O)c1cc(C(=O)NCc2ccc(OC)nc2)n2c1COCC2)c1ccccc1 [16jg, 3,4-Dihydro-1H-pyrrolo[2,1-c][1,4]oxazine-6,8-dicarboxylic acid 6-[(6-methoxy-pyridin-3-ylmethyl)-amide] 8-[((R)-1-phenyl-propyl)-amide]]
2 | 63 | CC[C@H](NC(=O)c1cc(C(=O)N2CCC[C@@H]2C)n2c1COCC2)c1ccc(C(F)(F)F)c(F)c1 [16bn, 6-((S)-2-Methyl-pyrrolidine-1-carbonyl)-3,4-dihydro-1H-pyrrolo[2,1-c][1,4]oxazine-8-carboxylic acid [(S)-1-(3-fluoro-4-trifluoromethyl-phenyl)-propyl]-amide]
3 | 85 | CC[C@@H](NC(=O)c1cc(C(=O)N2CCC[C@@H]2C)n2c1COCC2)c1ccc(C)cc1 [16be, 6-((S)-2-Methyl-pyrrolidine-1-carbonyl)-3,4-dihydro-1H-pyrrolo[2,1-c][1,4]oxazine-8-carboxylic acid ((R)-1-p-tolyl-propyl)-amide]
4 | 47 | CC[C@@H](NC(=O)c1cc(C(=O)N2CCC[C@@H]2C)n2c1COCC2)c1ncccn1 [16bd, 6-((S)-2-Methyl-pyrrolidine-1-carbonyl)-3,4-dihydro-1H-pyrrolo[2,1-c][1,4]oxazine-8-carboxylic acid ((R)-1-pyrimidin-2-yl-propyl)-amide]

Same assay, conditions: human TASK-1 expressed in Xenopus oocytes, room temperature; read-out: IC50 value for TASK-1 inhibition

Row | Compound | IC50 [nM]
5 | CC[C@@H](NC(=O)c1cc(C(=O)N2CCC[C@@H]2C)n2c1COCC2)c1ccc(C(F)(F)F)nc1C [16cb, 6-((S)-2-Methyl-pyrrolidine-1-carbonyl)-3,4-dihydro-1H-pyrrolo[2,1-c][1,4]oxazine-8-carboxylic acid [(R)-1-(2-methyl-6-trifluoromethyl-pyridin-3-yl)-propyl]-amide] | 140
6 | CC[C@@H](NC(=O)c1cc(C(=O)NCc2ccc(CC(=O)OC)cc2)n2c1COCC2)c1ccccc1 [16is, [4-({[8-((R)-1-Phenyl-propylcarbamoyl)-3,4-dihydro-1H-pyrrolo[2,1-c][1,4]oxazine-6-carbonyl]-amino}-methyl)-phenyl]-acetic acid methyl ester] | 1700
7 | CC[C@@H](NC(=O)c1cc(C(=O)N[C@@H](C)c2ccc(F)cc2)n2c1COCC2)c1ncccn1 [16ef, 3,4-Dihydro-1H-pyrrolo[2,1-c][1,4]oxazine-6,8-dicarboxylic acid 6-{[(S)-1-(4-fluoro-phenyl)-ethyl]-amide} 8-[((R)-1-pyrimidin-2-yl-propyl)-amide]] | 820
8 | CC[C@@H](NC(=O)c1cc(C(=O)N[C@H](C)c2ccc(F)cc2)n2c1COCC2)c1ccc(C#N)cc1 [16ec, 3,4-Dihydro-1H-pyrrolo[2,1][1,4]oxazine-6,8-dicarboxylic acid 8-{[(R)-1-(4-cyano-phenyl)-propyl]-amide} 6-{[(R)-1-(4-fluoro-phenyl)-ethyl]-amide}] | 600
9 | CC[C@@H](NC(=O)c1cc(C(=O)N2CCCC2)n2c1COCC2)c1ccc(F)cc1F [16de] | 49
10 | CC[C@@H](NC(=O)c1cc(C(=O)NCc2c(C)noc2C)c2n1CCOC2)c1ccccc1 [16jl, 3,4-Dihydro-1H-pyrrolo[2,1-c][1,4]oxazine-6,8-dicarboxylic acid 8-[(3,5-dimethyl-isoxazol-4-ylmethyl)-amide] 6-[((R)-1-phenyl-propyl)-amide]] | 3200
11 | CC[C@@H](NC(=O)c1cc(C(=O)N[C@H](CC)c2ccccc2)n2c1COCC2)c1ccccc1 [16i, 3,4-Dihydro-1H-pyrrolo[2,1-c][1,4]oxazine-6,8-dicarboxylic acid bis-[((R)-1-phenyl-propyl)-amide]] | 160
12 | C[C@H](NC(=O)c1cc(C(=O)N[C@H](C)c2ccc(F)cc2)n2c1COCC2)c1ncccn1 (racemic) [16dx, 3,4-Dihydro-1H-pyrrolo[2,1-c][1,4]oxazine-6,8-dicarboxylic acid 6-{[(R)-1-(4-fluoro-phenyl)-ethyl]-amide} 8-[((S)-1-pyrimidin-2-yl-ethyl)-amide]] | 1200
13 | CCOC(=O)[C@H](NC(=O)c1cc(C(=O)N[C@H](CC)c2ccccc2)c2n1CCOC2)c1ccccc1 [16hq, (R)-Phenyl-{[8-((R)-1-phenyl-propylcarbamoyl)-3,4-dihydro-1H-pyrrolo[2,1-c][1,4]oxazine-6-carbonyl]-amino}-acetic acid ethyl ester] | 320
14 | CC[C@@H](NC(=O)c1cc(C(=O)N2CCC[C@@H]2C)n2c1COCC2)c1cccc(C#N)n1 [16ah, 6-((S)-2-Methyl-pyrrolidine-1-carbonyl)-3,4-dihydro-1H-pyrrolo[2,1-c][1,4]oxazine-8-carboxylic acid [(R)-1-(6-cyano-pyridin-2-yl)-propyl]-amide] | 3200
15 | CCOC(=O)[C@H]1CCCN1C(=O)c1cc(C(=O)N[C@H](CC)c2ccccc2)c2n1CCOC2 [16ff] | 540
16 | CC[C@@H]1CCCN1C(=O)c1cc(C(=O)N[C@H](CC)c2ccccc2)c2n1CCOC2 (racemic) [16fd, 6-((R)-2-Ethyl-pyrrolidine-1-carbonyl)-3,4-dihydro-1H-pyrrolo[2,1-c][1,4]oxazine-8-carboxylic acid ((R)-1-phenyl-propyl)-amide] | 730
17 | CC[C@@H](NC(=O)c1cc(C(=O)N2CCC[C@@H]2C)n2c1COCC2)c1ccc(C(F)F)cc1 [16au, 6-((S)-2-Methyl-pyrrolidine-1-carbonyl)-3,4-dihydro-1H-pyrrolo[2,1-c][1,4]oxazine-8-carboxylic acid [(R)-1-(4-difluoromethyl-phenyl)-propyl]-amide] | 340
18 | CC[C@@H](NC(=O)c1cc(C(=O)N[C@H](C)C(C)(C)C)n2c1COCC2)c1ccccc1 [16hr, 3,4-Dihydro-1H-pyrrolo[2,1-c][1,4]oxazine-6,8-dicarboxylic acid 8-[((R)-1-phenyl-propyl)-amide] 6-[((R)-1,2,2-trimethyl-propyl)-amide]] | 190
19 | CC[C@@H](NC(=O)c1cc(C(=O)NC2CC2)n2c1COCC2)c1ccccc1 [16gi, 3,4-Dihydro-1H-pyrrolo[2,1-c][1,4]oxazine-6,8-dicarboxylic acid 6-cyclopropylamide 8-[((R)-1-phenyl-propyl)-amide]] | 1300
20 | 3,4-Dihydro-1H-pyrrolo[2,1-c][1,4]oxazine-6,8-dicarboxylic acid 6-{[(R)-1-(4-fluoro-phenyl)-ethyl]-amide} 8-{[(S)-1-(5-methoxy-pyrazin-2-yl)-propyl]-amide} [16dv] | 190
21 | CC[C@@H](NC(=O)c1cc(C(=O)N(CC)CC)n2c1COCC2)c1ccccc1 [16gn, 3,4-Dihydro-1H-pyrrolo[2,1-c][1,4]oxazine-6,8-dicarboxylic acid 6-diethylamide 8-[((R)-1-phenyl-propyl)-amide]] | 250

Continued, values first:

Row | IC50 [nM] | Compound
22 | 1100 | CC[C@@H](NC(=O)c1cc(C(=O)N2CCC[C@@H]2c2cnccn2)c2n1CCOC2)c1ccc(F)cc1F [16pj, 8-((R)-2-Pyrazin-2-yl-pyrrolidine-1-carbonyl)-3,4-dihydro-1H-pyrrolo[2,1-c][1,4]oxazine-6-carboxylic acid [(R)-1-(2,4-difluoro-phenyl)-propyl]-amide]
23 | 75 | CC[C@@H](NC(=O)c1cc(C(=O)N(C)Cc2ccc(F)cc2)n2c1CCCC2)c1ccccc1 [16mu, 5,6,7,8-Tetrahydro-indolizine-1,3-dicarboxylic acid 3-[(4-fluoro-benzyl)-methyl-amide] 1-[((R)-1-phenyl-propyl)-amide]]
24 | 460 | 5,6,7,8-Tetrahydro-indolizine-1,3-dicarboxylic acid 3-[(5-fluoro-pyridin-3-ylmethyl)-amide] 1-[((R)-1-phenyl-propyl)-amide] [16nb]
25 | 2100 | CC[C@@H](NC(=O)c1cc(C(=O)N2CCC[C@@H]2C)n2c1CCCC2)c1ccc(C#N)nc1 [16lv, 3-((S)-2-Methyl-pyrrolidine-1-carbonyl)-5,6,7,8-tetrahydro-indolizine-1-carboxylic acid [(R)-1-(6-cyano-pyridin-3-yl)-propyl]-amide]
26 | 2000 | CC[C@@H](NC(=O)c1cc(C(=O)N2CCOCC2)n2c1CCCC2)c1ccccc1 [16nc, 3-(Morpholine-4-carbonyl)-5,6,7,8-tetrahydro-indolizine-1-carboxylic acid ((R)-1-phenyl-propyl)-amide]
27 | 130 | CC[C@@H](NC(=O)c1cc(C(=O)N2CCC[C@@H]2COC)c2n1CCOC2)c1ccccc1 [16kk, 8-((R)-2-Methoxymethyl-pyrrolidine-1-carbonyl)-3,4-dihydro-1H-pyrrolo[2,1-c][1,4]oxazine-6-carboxylic acid ((R)-1-phenyl-propyl)-amide]
28 | 37 | CC[C@@H](NC(=O)c1cc(C(=O)N2CCC[C@@H]2C)n2c1SCC2)c1ccccc1 [16ks, 5-((S)-2-Methyl-pyrrolidine-1-carbonyl)-2,3-dihydro-pyrrolo[2,1-b]thiazole-7-carboxylic acid ((R)-1-phenyl-propyl)-amide]
29 | 190 | C[C@H]1CCCN1C(=O)c1cc(C(=O)NCc2ccc(F)cc2Cl)c2n1CCOC2 [16x, 6-((S)-2-Methyl-pyrrolidine-1-carbonyl)-3,4-dihydro-1H-pyrrolo[2,1-c][1,4]oxazine-8-carboxylic acid 2-chloro-4-fluoro-benzylamide]
30 | 270 | CC[C@@H](NC(=O)c1cc(C(=O)N2CCC[C@@H]2C)n2c1CSCC2)c1ccccc1 [16kz, 6-((S)-2-Methyl-pyrrolidine-1-carbonyl)-3,4-hihydro-1H-pyrrolo[2,1-c][1,4]thiazine-8-carboxylic acid ((R)-1-phenyl-propyl)-amide]
31 | 13 | CC[C@H](NC(=O)c1cc(C(=O)N[C@H](CC)c2ccccc2)c2n1CCCC2)c1ccccc1 [16mb, 5,6,7,8-Tetrahydro-indolizine-1,3-dicarboxylic acid 3-[((S)-1-phenyl-propyl)-amide] 1-[((R)-1-phenyl-propyl)-amide]]
32 | 58 | CC[C@@H](NC(=O)c1cc(C(=O)N[C@@H](C)c2ccc(F)cc2)n2c1CCCC2)c1ccccc1 [16lt, 5,6,7,8-Tetrahydro-indolizine-1,3-dicarboxylic acid 3-{[(S)-1-(4-fluoro-phenyl)-ethyl]-amide} 1-[((R)-1-phenyl-propyl)-amide]]
